We go through 19 molecules from ChEMBL document CHEMBL3621115, “Discovery of 6-phenylimidazo[2,1-b]thiazole derivatives as a new type of FLT3 inhibitors” (Bioorg Med Chem Lett, 2015).

One assay relates to HeLa. Put plainly: Cytotoxicity against human HeLa cells assessed as cell viability after 72 hrs by MTT assay. The class given is functional, cell-based.
Settings: not given
Background: Formazan colour is commonly taken as a measure of viable cells.
A word on the IC50: it is the midpoint of a concentration-inhibition curve. With `CC(C)(C)c1cc(NC(=O)Nc2ccc(-c3cn4c(C(=O)NCCO)csc4n3)cc2)no1`, the IC50 was over 20 µM.
For `CCOC(=O)c1csc2nc(-c3ccc(NS(=O)(=O)c4ccc(C)cc4)cc3)cn12`, the half-maximal inhibitory concentration (IC50) was over 20 µM.
The same measure, in the same setting: the result for `CCOC(=O)c1csc2nc(-c3ccc(NC(=O)Nc4cc(C(C)(C)C)on4)cc3)cn12` reads over 20 µM; that for `CCOC(=O)c1csc2nc(-c3cccc(NC(=O)CCl)c3)cn12`, 20 µM.
Same read-out and setting: the result for `CC(C)(C)c1cc(NC(=O)Nc2ccc(-c3cn4c(C(=O)NCCN5CCOCC5)csc4n3)cc2)no1` reads over 20 µM; that for `C=CC(=O)Nc1ccc(-c2cn3c(C(=O)OCC)csc3n2)cc1`, over 20 µM; that for `CNC(=O)c1cc(Oc2ccc(NC(=O)Nc3ccc(Cl)c(C(F)(F)F)c3)cc2)ccn1` [SORAFENIB], 5.23 µM.
`CCOC(=O)c1csc2nc(-c3ccc(NC(=O)CC)cc3)cn12`: the IC50 is over 20 µM.
On the same count and under the same terms, the result for `CCOC(=O)c1csc2nc(-c3ccc(NC(=O)c4ccco4)cc3)cn12` reads over 20 µM; that for `CN(C)CCNC(=O)c1csc2nc(-c3ccc(NC(=O)Nc4cc(C(C)(C)C)on4)cc3)cn12`, 20 µM; that for `CCOC(=O)c1csc2nc(-c3ccc(NC(=O)CCl)cc3)cn12`, over 20 µM.
On the same count and under the same terms, in the case of `CCCS(=O)(=O)Nc1ccc(-c2cn3c(C(=O)OCC)csc3n2)cc1` it was over 20 µM; in that of `CCOC(=O)c1csc2nc(-c3ccc(NC(=O)Nc4ccc(Br)cn4)cc3)cn12`, over 20 µM.
On the same count and under the same terms, the result for `CCOC(=O)c1csc2nc(-c3ccc(NC(=O)Nc4ccccc4)cc3)cn12` reads over 20 µM; that for `CC(C)(C)c1cc(NC(=O)Nc2ccc(-c3cn4c(C(=O)OCCN5CCOCC5)csc4n3)cc2)no1`, over 20 µM.
Regarding `CCOC(=O)c1csc2nc(-c3cccc(NC(=O)CC)c3)cn12`, the half-maximal inhibitory concentration (IC50) was over 20 µM.
The same measure, in the same setting: the result for `CCOC(=O)c1csc2nc(-c3cccc(NC(=O)c4ccco4)c3)cn12` reads over 20 µM; that for `CC(C)(C)c1cc(NC(=O)Nc2ccc(-c3cn4c(C(=O)NCCS(C)(=O)=O)csc4n3)cc2)no1`, over 20 µM; that for `C=CC(=O)Nc1cccc(-c2cn3c(C(=O)OCC)csc3n2)c1`, over 20 µM.

The target in the next assay is T1, Receptor-type tyrosine-protein kinase FLT3 (Homo sapiens, UniProt P36888).
T1 sequence (P36888 whole entry): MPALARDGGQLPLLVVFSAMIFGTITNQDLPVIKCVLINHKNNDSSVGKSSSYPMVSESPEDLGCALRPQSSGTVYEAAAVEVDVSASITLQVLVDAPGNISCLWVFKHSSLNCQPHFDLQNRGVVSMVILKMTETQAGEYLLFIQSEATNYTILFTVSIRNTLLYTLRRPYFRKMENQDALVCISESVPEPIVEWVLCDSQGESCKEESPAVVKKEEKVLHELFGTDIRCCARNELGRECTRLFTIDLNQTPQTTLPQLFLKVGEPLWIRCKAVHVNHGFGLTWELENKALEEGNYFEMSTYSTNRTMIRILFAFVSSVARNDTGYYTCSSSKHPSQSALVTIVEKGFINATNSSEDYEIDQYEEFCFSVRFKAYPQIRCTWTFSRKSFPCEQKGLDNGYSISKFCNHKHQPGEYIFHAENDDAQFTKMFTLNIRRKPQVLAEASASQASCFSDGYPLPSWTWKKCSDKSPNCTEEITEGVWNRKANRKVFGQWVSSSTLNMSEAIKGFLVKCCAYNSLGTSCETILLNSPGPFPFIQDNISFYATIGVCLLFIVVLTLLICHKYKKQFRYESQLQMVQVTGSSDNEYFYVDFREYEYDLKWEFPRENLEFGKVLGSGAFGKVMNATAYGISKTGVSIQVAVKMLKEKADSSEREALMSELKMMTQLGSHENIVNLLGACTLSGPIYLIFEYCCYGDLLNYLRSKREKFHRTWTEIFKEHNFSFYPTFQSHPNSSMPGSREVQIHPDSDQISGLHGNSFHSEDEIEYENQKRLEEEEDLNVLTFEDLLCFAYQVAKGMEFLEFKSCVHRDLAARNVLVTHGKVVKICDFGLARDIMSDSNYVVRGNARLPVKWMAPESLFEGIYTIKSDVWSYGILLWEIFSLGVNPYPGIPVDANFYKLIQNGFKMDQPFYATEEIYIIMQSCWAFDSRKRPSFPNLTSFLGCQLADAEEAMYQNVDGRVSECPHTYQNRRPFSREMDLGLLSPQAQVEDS
Put plainly: Inhibition of human recombinant Flt3.
Settings: not given
As to `CN(C)CCNC(=O)c1csc2nc(-c3ccc(NC(=O)Nc4cc(C(C)(C)C)on4)cc3)cn12`, the IC50 was found to be 22 nM.
Same read-out and setting: in the case of `CC(C)(C)c1cc(NC(=O)Nc2ccc(-c3cn4c(C(=O)NCCS(C)(=O)=O)csc4n3)cc2)no1` it was 95 nM.

The subject of another assay is MV4-11. Put plainly: Cytotoxicity against human MV4-11 cells assessed as cell viability after 72 hrs by MTT assay. In kind it is functional, cell-based. The settings on record: MV4-11, 72 h.
Turning to `CC(C)(C)c1cc(NC(=O)Nc2ccc(-c3cn4c(C(=O)NCCO)csc4n3)cc2)no1`, the 50% inhibitory concentration (IC50) worked out at 15.6 nM.
The same measure, in the same setting: the result for `CCOC(=O)c1csc2nc(-c3ccc(NS(=O)(=O)c4ccc(C)cc4)cc3)cn12` reads over 20000 nM; that for `CCOC(=O)c1csc2nc(-c3ccc(NC(=O)Nc4cc(C(C)(C)C)on4)cc3)cn12`, 274 nM; that for `CCOC(=O)c1csc2nc(-c3cccc(NC(=O)CCl)c3)cn12`, 17700 nM.
As to `CC(C)(C)c1cc(NC(=O)Nc2ccc(-c3cn4c(C(=O)NCCN5CCOCC5)csc4n3)cc2)no1`, the half-inhibitory concentration (IC50) is 16.3 nM.
On to `C=CC(=O)Nc1ccc(-c2cn3c(C(=O)OCC)csc3n2)cc1`, for which the IC50 is 2930 nM.
Same read-out and setting: in the case of `CNC(=O)c1cc(Oc2ccc(NC(=O)Nc3ccc(Cl)c(C(F)(F)F)c3)cc2)ccn1` [SORAFENIB] it was 7 nM.
On the same count and under the same terms, the result for `CCOC(=O)c1csc2nc(-c3ccc(NC(=O)CC)cc3)cn12` reads 9520 nM; that for `CCOC(=O)c1csc2nc(-c3ccc(NC(=O)c4ccco4)cc3)cn12`, 9920 nM.
Still for that read-out and setting: the result for `CN(C)CCNC(=O)c1csc2nc(-c3ccc(NC(=O)Nc4cc(C(C)(C)C)on4)cc3)cn12` reads 9.7 nM.
`CCOC(=O)c1csc2nc(-c3ccc(NC(=O)CCl)cc3)cn12`: the half-inhibitory concentration (IC50) amounted to 9070 nM.
Still for that read-out and setting: in the case of `CCCS(=O)(=O)Nc1ccc(-c2cn3c(C(=O)OCC)csc3n2)cc1` it was over 20000 nM; in that of `CCOC(=O)c1csc2nc(-c3ccc(NC(=O)Nc4ccc(Br)cn4)cc3)cn12`, 2440 nM; in that of `CCOC(=O)c1csc2nc(-c3ccc(NC(=O)Nc4ccccc4)cc3)cn12`, over 20000 nM.
Same read-out and setting: in the case of `CC(C)(C)c1cc(NC(=O)Nc2ccc(-c3cn4c(C(=O)OCCN5CCOCC5)csc4n3)cc2)no1` it was 146 nM; in that of `CCOC(=O)c1csc2nc(-c3cccc(NC(=O)CC)c3)cn12`, over 20000 nM.
Same read-out and setting: the result for `CCOC(=O)c1csc2nc(-c3cccc(NC(=O)c4ccco4)c3)cn12` reads over 20000 nM.
Turning to `CC(C)(C)c1cc(NC(=O)Nc2ccc(-c3cn4c(C(=O)NCCS(C)(=O)=O)csc4n3)cc2)no1`, the concentration for half-maximal inhibition (IC50) worked out at 4.9 nM.
With `C=CC(=O)Nc1cccc(-c2cn3c(C(=O)OCC)csc3n2)c1`, the half-inhibitory concentration (IC50) was over 20000 nM.
